One data set deals with ApoE Mice. Put plainly: Minimum efficacious exposure in ApoE mice. It is filed as in vivo.
Data set [1] is described as follows: Solubility measured at room temperature in water, acid and basic conditions (HPLC). It is filed as physicochemical. On the procedure: The solubility of 4-(3-{5-chloro-1-(diphenylmethyl)-2-[2-({[2-(trifluoromethyl)benzyl]sulfonyl}amino)ethyl]-1H-indol-3-yl}propyl)benzoic acid was measured at room temperature in water, acid and basic conditions.
The solubility of 4-(3-{5-chloro-1-(diphenylmethyl)-2-[2-({[2-(trifluoromethoxy)benzyl]sulfonyl}amino)ethyl]-1H-indol-3-yl}propyl)benzoic acid was measured at room temperature in water, acid and basic conditions.
The solubility of 4-(3-{5-chloro-1-(diphenylmethyl)-2-[2-({[2-fluoro-6-(trifluoromethyl)benzyl]sulfonyl}amino)ethyl]-1H-indol-3-yl}propyl)benzoic acid was measured at room temperature in water, acid and basic conditions.

Data set [2] can be described thus: Rat oral absorption/bioavailability after single oral dose of 25 mg/kg. The format is in vivo, rats. To be noted: for oral exposure with addition of 2% Tween 80: 2% Tween 80/0.5% MC vehicle; for bioavailability: rat, in vivo, rats, read-out: estimated bioavailability; for bioavailability / oral absorption in rats: single oral dose of 25 mg/kg in 2% Tween/0.5% MC. The source says:
(§1) Based on the animal data and solubility in pharmaceutical acceptable excipients, formulation development for first in human studies was undertaken based on this formulation.

Data set [3] is described as follows: Solubility in 2% Tween 80/0.5% methylcellulose vehicle. The format is physicochemical. To be noted: for solubility: 2% Tween 80/0.5% methylcellulose vehicle, aqueous with cosolvent or surfactant or cyclodextrin, read-out: solubility in 2% Tween 80/0.5% methylcellulose (MC) vehicle.
From the text: as §1

Data set [4] concerns carrageenan-induced paw edema. Nature of the data set: Rat carrageenan-induced paw edema (CPE) study. It is filed as in vivo. On the procedure:
Data from a rat carrageenan-induced paw edema (CPE) study indicated the minimum efficacious exposure of 4-(3-{5-chloro-1-(diphenylmethyl)-2-[2-({[2-(trifluoromethyl)benzyl]sulfonyl}amino)ethyl]-1H-indol-3-yl}propyl)benzoic acid was 1360 ng*hr/ml.
(The carrageenan paw model is a standard test of acute inflammation.)

These results are taken from patent US20100056520A1, “FORMULATIONS OF PHOSPHOLIPASE ENZYME INHIBITORS” (priority 2006, published 2010).

Converted amounts (≈) assume the structure as drawn.

For orientation: bioavailability means the share of a dose that reaches the circulation, judged against a reference dose that is usually intravenous. In the data set on ApoE Mice, `O=C(O)c1ccc(CCCc2c(CCNS(=O)(=O)Cc3ccccc3OC(F)(F)F)n(C(c3ccccc3)c3ccccc3)c3ccc(Cl)cc23)cc1` [4-(3-{5-chloro-1-(diphenylmethyl)-2-[2-({[2-(trifluoromethoxy)benzyl]sulfonyl}amino)ethyl]-1H-indol-3-yl}propyl)benzoic acid] came in with a minimum efficacious exposure of 2800 ng·h/mL. Moreover, the solubility in data set [1] (water, acid and basic conditions, water, acid and basic conditions, below the HPLC detection limit, read-out: intrinsic solubility in all conditions) is less than 0.0212 µg/mL. Moreover, in data set [2], the “oral exposure with addition of 2% Tween 80” value is reported as “did not afford adequate oral exposure”, the bioavailability was roughly 1.8% and the “oral absorption in rats” value is on record as “relatively low”. For the same compound, in data set [3], the “solubility enhancement by addition of 2% Tween 80” value came out at 23.490 fold, the “solubility in 2% Tween 80/0.5% methylcellulose (MC) vehicle” value is 498 µg/mL (≈ 654 µM) and the solubility was found to be 496 µg/mL (≈ 652 µM).

For `O=C(O)c1ccc(CCCc2c(CCNS(=O)(=O)Cc3ccccc3C(F)(F)F)n(C(c3ccccc3)c3ccccc3)c3ccc(Cl)cc23)cc1` [4-(3-{5-chloro-1-(diphenylmethyl)-2-[2-({[2-(trifluoromethyl)benzyl]sulfonyl}amino)ethyl]-1H-indol-3-yl}propyl)benzoic acid], the solubility in data set [1] (aqueous solution (water, acid and basic conditions), aqueous buffer, below the HPLC detection limit, read-out: intrinsic solubility of the free acid) was less than 0.031 µg/mL; in data set [1] (aqueous solution (water, acid and basic conditions), aqueous buffer, read-out: solubility of the anion), 0.11 µg/mL (≈ 0.148 µM). In data set [4], the minimum efficacious exposure was determined as 1360 ng·h/mL.

As for `O=C(O)c1ccc(CCCc2c(CCNS(=O)(=O)Cc3c(F)cccc3C(F)(F)F)n(C(c3ccccc3)c3ccccc3)c3ccc(Cl)cc23)cc1` [4-(3-{5-chloro-1-(diphenylmethyl)-2-[2-({[2-fluoro-6-(trifluoromethyl)benzyl]sulfonyl}amino)ethyl]-1H-indol-3-yl}propyl)benzoic acid], the solubility in data set [1] (water, acid and basic conditions, aqueous buffer, below the HPLC detection limit, read-out: intrinsic solubility over the pH range of 1 to 11) is less than 0.1 µg/mL. In data set [2], the “oral exposure with addition of 2% Tween 80” value is reported as “did not afford adequate oral exposure”, the bioavailability was less than 1% and the “oral absorption in rats” value is listed as “relatively low”. The solubility in data set [3] was 115 µg/mL (≈ 151 µM).
